Assays:
protein TYRP1 = test: Western blot of TYRP1 protein; assay type: cell-based, human; conditions: MNT-1 cells, 50 nM mimetic, day 12
Protocol: (§1) 4×10^5 MNT-1 cells were seeded per well in a 6-well plate (#353046, Falcon) on day-1. On day 0, the cells were transfected with 50 nM of mimetic of the miRNAs (hsa-mir-137 # C-300604-07-005, hsa-mir-7 # C-300547-05-0005, hsa-mir-330-5p # C-301082-01-0005, negative control # NC-002000-01-05, Dharmacon), using 5 μL of Lipofectamine 2000 (#1668-019, Invitrogen). On day 1, the medium was changed. On day 3, the cells were trypsinized and seeded at 4×10^5 cells per well. On day 4, the cells were transfected again with 50 nM of mimetic of the miRNAs (see day 0). On day 5, the medium was changed. On day 7, the cells were trypsinized and seeded at 4×10^5 cells per well. On day 8, the cells were transfected with 50 nM of mimetic of the miRNAs (see day 0). On day 9, the medium was changed. On day 10, the cells were trypsinized and divided into two (from one by six wells to two by six wells). On day 12, one six-well plate was used for lysis of the RNA and the other for lysis of the proteins. As positive control of depigmentation, MNT-1 cells were incubated with 3.5 mM of kojic acid (Sigma K3125-5G) for 12 days. The cells were distributed as described and the kojic acid was renewed with the medium every 4 days. The percentage inhibition of the kojic acid is of the order of 10%. […] The concentration of proteins was determined with the BCA Protein Assay (ThermoFisher). […]

MLANA = test: Western blot of MLANA protein; assay type: cell-based, human; conditions: MNT-1 cells, 50 nM mimetic, day 12
Protocol: as §1

[1] = tested on: binding site of miR-330-5p in the 3'UTR of tyrosinase (TYR), WT; test: Luciferase reporter assay, wild-type (WT) TYR 3'UTR binding site; assay type: cell-based; conditions: Lu1205 human melanoma cells, 50 nM mimetic co-transfected, relative to control without insert
Excerpt: (§2) The predicted binding site of miR-330-5p in the 3′UTR (position 68-75 of 3′UTR with total length of 393nt) of TYR (NM 000372) including the adjacent bases was designed using the following primers, and was cloned into the pmirGLO reporter vector (Promega) downstream of the region coding for firefly luciferase and using the Pmel and XbaI sites.
(§3) Ligation of the primers LL2086 (sense) and LL2087 (antisense) represents the wild-type (WT) TYR 3′UTR sequence, whereas ligation of the primers LL2088 (sense) and LL2089 (antisense) represents the mutated form of the binding site of the miR-330-Site 5p in the 3′UTR TYR region (MUT). All the constructs were confirmed by sequencing. On D0, 200,000 Lu1205 cells were seeded in 12-well plates. On D1, the Lu1205 cells were transfected with either 30 ng of pmirGLO empty vector (without insert), or 30 ng of WT construct, or 30 ng of MUT construct. At the same time, the cells were co-transfected with 50 nM of mimetic of miR-330-5p (Dharmacon) using Lipofectamine 2000 (Invitrogen). Forty-eight hours after transfection, the cells were collected and analyzed both with firefly luciferase and with Renilla luciferase (included in the pmirGLO vector) using the luciferase double assay (Promega) and a luminometer (Microlumatplus LB96V, Berthold Technologies). […] The relative luciferase activity was calculated, establishing the condition of non-insertion as 1.

[2] = tested on: mutated form of the binding site of miR-330-5p in the 3'UTR TYR region (MUT); test: Luciferase reporter assay, mutated (MUT) TYR 3'UTR binding site; assay type: cell-based; conditions: Lu1205 human melanoma cells, 50 nM mimetic co-transfected, relative to control without insert
Excerpt: as §2, §3

hsa-miR-137: mimetic of miRNA hsa-mir-137 (Dharmacon C-300604-07-005); mature sequence SEQ ID NO: 3 (UUAUUGCUUAAGAAUACGCGUAG; commercial mimic, chemistry not given here; listed as Homo sapiens)
level of protein TYRP1 (Western blot) (protein TYRP1): reduces the level of protein TYRP1 slightly
level of protein MLANA (Western blot) (MLANA): eliminates

hsa-miR-330-5p: mimetic of miRNA hsa-mir-330-5p (Dharmacon C-301082-01-0005); mature sequence 5'-UCUCUGGGCCUGUGUCUUAGGC-3' (SEQ ID NO: 1) (UCUCUGGGCCUGUGUCUUAGGC; mimic duplex, passenger strand not given here; listed as Homo sapiens)
luciferase activity, WT construct [1]: considerably reduced
luciferase activity, MUT construct [2]: restoration of luciferase activity
